# Test results as given in article PMC12591170, “Glabridin‐Gold(I) Complex as a Novel Immunomodulatory Agent Targeting TrxR and MAPK Pathways for Synergistic Enhancement of Antitumor Immunity” (Advanced Science, 2025).
# Key:
# [1] = test system: MEK1/2; experiment: CETSA and ITDR assay, MEK1/2; type: binding, human; conditions: HepG2 proteins, 8 µM, ITDR at 78 °C
# Procedure: The treated HepG2 cells in 10 cm culture dishes were collected and washed with PBS. The collected cells were repeatedly frozen and thawed for 3 times by liquid nitrogen and 37 °C water bath. Then, proteins were isolated by centrifugation. The isolated proteins were divided into different tubes and incubated with same concentration of 6d at different temperature. Western blot was applied for CETSA by analyzing the band intensity of different temperature groups.
# The temperature, which results in significant band differences between 6d and control group, was selected for ITDR assay. The isolated proteins were divided into different tubes and incubated with different concentration of 6d at same temperature. The binding between 6d and target protein was assessed by analyzing the band intensity of different concentration groups.
# [2] = Solubility by UV absorbance; type: physicochemical; conditions: PBS: DMF = 200:1, 298K
# Procedure: Weigh a certain amount of 6d, dissolve it in a PBS: DMF = 200:1 solution, and mix to obtain the high‐concentration solution. Then dilute the original solution to prepare solutions of different concentrations. The ultraviolet absorbance values at the maximum absorption wavelength (237 nm) were measured in sequence, and the standard curve was plotted (Figure S40, Supporting Information). Prepare the saturated 6d solution by the same method. After centrifugation, take the supernatant and dilute it 7 times.
# [3] = test system: HepG2 cells; experiment: Apoptosis assay (annexin V-EGFP/PI); type: cell-based, human; conditions: HepG2, 24 h
# Procedure: 4 × 10^5 HepG2 cells was seeded in 6‐well plates for overnight incubation. DMF (0.1%), AF (4 µM) or different concentrations of 6d (2, 4, 8 µM) were added in the wells for 24 h. PBS was applied to wash cells for two times, and cells were collected subsequently. After washing twice by PBS, Annexin V‐EGFP/PI Apoptosis Detection kit was used to dye the cells. Then, the apoptosis ratio was analyzed by flow cytometer.
# [4] = test system: HepG2 cells; experiment: ROS levels assay (DHE, DCFH-DA); type: cell-based, human; conditions: HepG2, 6 h, DHE and DCFH-DA probes
# Procedure: HepG2 cells were seeded in 12‐well plate (5 × 10^4 cells per well). 4 mM N‐acetylcysteine (NAC) was applied for 1 h pretreatment. DMF (0.1%), AF (4 µM) or different concentrations of 6d (2, 4, 8 µM) were added in the wells for 6 h incubation. 10 µM DHE or DCFH‐DA (dissolved in DMEM) probes were applied for 30 min staining. The cells were photographed by the fluorescence microscopy after washing twice.
# [5] = test system: purified TrxR; experiment: Purified TrxR activity assay (DTNB); type: biochemical; conditions: 0.625-20 µM
# Procedure: Different concentrations of complex 6d solution and 1.8 U purified TrxR were added to the wells (25 µL per well separately). Consequently, the reaction solution (20 mg mL^−1 BSA, 500 mM EDTA‐2Na, and 40 mg mL^−1 NADPH, diluted in a 1:1 mixture of PBS and water) was added to the 96 wells (225 µL per well). Finally, 25 mg mL^−1 DTNB solution was added (25 µL per well) and OD values were immediately measured at 405 nm. The linear growth at 405 nm was calculated to show the purified TrxR activity. Final concentrations of complex 6d were 0.625, 1.25, 2.5, 5, 10, 20 µM.
# [6] = test system: immune cells in Hepa1-6 tumor and spleen tissue; experiment: In vivo immune cell and marker analysis (flow cytometry, immunofluorescence, immunohistochemistry); design: species or system C57BL/6 mice
# Procedure: All mice were 6–8 weeks old males and procured from Hangzhou Medical College, located in Hangzhou, China. […] 2 × 10^6 Hepa1‐6 cells in 100 µL DMEM were subcutaneously seeded in underarms of C57BL/6 mice. […] Meanwhile, the mice weights and tumor volume were recorded, and the calculation formula of tumor volume was Volume = Width^2 × Length/2. After 13 days, all mice were sacrificed for collection of tumors, hearts, livers, spleens, lungs and kidneys. Collagenase IV (1 mg mL^−1) and DNase I (1 µg mL^−1) were applied to digest a part of the tumor tissue into cell suspension, and lysis buffer was used to remove red blood cells. The prepared cells above were stained with antibodies (anti‐CD3e‐FITC, and anti‐CD8a‐PE; anti‐CD11c‐APC, anti‐CD80‐PE, and anti‐CD86‐FITC; anti‐CD45‐Percp, anti‐CD11b‐APC, and anti‐Ly‐6G/Ly‐6C(Gr‐1)‐FITC; anti‐CD11b‐APC, anti‐CD206‐PE, and CD86‐FITC). CD3^+CD8^+ T cells, CD80^+CD86^+ DCs, CD11b^+Gr‐1^+ MDSCs, CD206^−CD86^+ M1‐type macrophages and CD206^+CD86^− M2‐type macrophages were analyzed by flow cytometry. Then, another part of tumor tissues were fixed with 4% paraformaldehyde, embedded in paraffin, cut into slices and stained with antibodies for immunofluorescence and immunohistochemistry analysis.
# [7] = flow cytometry and immunofluorescence
compound,measurement,setting,value
CCn1ccn(CCCCCOc2ccc([C@@H]3COc4c(ccc5c4C=CC(C)(C)O5)C3)c(OCCCCCn3ccn(CC)[c]3=[Au][Br])c2)[c]1=[Au][Br] [6d],"binding to MEK1/2 (CETSA, ITDR)",[1],significant binding
same,solubility,[2],108 µg/mL
same,apoptosis,[3],apoptosis was observed
same,ROS level,[4],elevated ROS level
same,purified TrxR activity,[5],suppressed TrxR activity
same,DC maturation in spleen and tumor tissues,[6]; [7],induced DC maturation
same,macrophage polarization in tumor,[6]; [7],significantly promoted M1‐type macrophage polarization
same,T lymphocyte infiltration in tumor,[6]; flow cytometry and immunohistochemistry,promoted T lymphocyte infiltration
same,Arg-1 expression in tumor tissue,[6]; immunofluorescence,downregulation
same,CRT exposure in tumor tissue,[6]; immunofluorescence,promoted CRT exposure
same,GzmB expression in tumor tissue,"[6]; immunofluorescence, OXA vs model group, 6d vs OXA group",significantly upregulated GzmB expression
same,MDSC infiltration in tumor,"[6]; vs model group, 13 days",reducing the infiltration
same,Treg infiltration in tumor (Foxp3),"[6]; vs model group, 13 days",reducing the infiltration
